Laboratory results reported in patent US4259345A, “2-(Imidazol-1-ylmethyl)pyrroles” (Pfizer Inc., priority 1979, dated 1981).

Experiments:
[1] = biological target: T1, Thromboxane A2 (TxA2) Synthetase (Homo sapiens, UniProt P24557); test: Thromboxane A2 (TxA2) synthetase inhibition in vitro (isometric tension of rabbit aorta spirals); type: biochemical; conditions: Indomethacin pretreated human platelet microsomes; PGH2 substrate, 2 min, 0° C; 5 min pre-incubation; read-out: Molar concentration causing 50% inhibition of TxA2 Synthetase
T1 construct: Indomethacin pretreated human platelet microsomes; from tissue; host or cells: human platelets (microsomes)
T1 sequence (P24557 1-533): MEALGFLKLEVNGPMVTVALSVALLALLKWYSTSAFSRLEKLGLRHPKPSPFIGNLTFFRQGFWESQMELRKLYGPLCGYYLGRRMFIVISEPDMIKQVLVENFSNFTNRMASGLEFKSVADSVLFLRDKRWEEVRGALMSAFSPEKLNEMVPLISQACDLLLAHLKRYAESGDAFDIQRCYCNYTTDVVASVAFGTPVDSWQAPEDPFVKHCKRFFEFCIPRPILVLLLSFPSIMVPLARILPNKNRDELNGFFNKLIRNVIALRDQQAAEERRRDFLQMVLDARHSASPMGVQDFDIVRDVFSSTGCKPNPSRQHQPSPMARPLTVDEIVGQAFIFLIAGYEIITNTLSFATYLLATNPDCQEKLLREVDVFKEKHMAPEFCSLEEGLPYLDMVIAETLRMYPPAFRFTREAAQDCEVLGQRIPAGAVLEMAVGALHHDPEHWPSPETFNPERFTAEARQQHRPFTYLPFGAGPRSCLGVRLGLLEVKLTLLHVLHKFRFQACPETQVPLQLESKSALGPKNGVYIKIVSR
Method: (§1) The effect of the compounds of the formula (I) on the thromboxane synthetase enzyme, and the prostacyclin synthetase and cyclo-oxygenase enzyme has been measured by the following in vitro enzyme assays:
3. Thromboxane A2 (TxA2) Synthetase
Indomethacin pretreated human platelet microsomes (Science 1976, 193, 163) are incubated (2 min.: 0° C.) with PGH2 (produced as in 1) and aliquots of the reaction mixture superfused over two rabbit aorta spirals which are separated by a delay coil (2 min.). The latter is required to allow the selective decay of the more unstable thromboxane A2 (Proc. Nat. Acad. Sci., 1975, 72, 2994) thereby enabling the separate measurement of increased isometric tension due to the TxA2 formed and the PGH2 remaining. The test compound is pre-incubated with the enzyme for 5 minutes, and its ability to inhibit the thromboxane synthetase enzyme is measured as its reduction of the TxA2 component of the isometric tension.
(§2) The results of these tests are shown in the following Table, which gives the molar concentration of each compound which caused a 50% change in the effect of the relevant enzyme on isometric tension, i.e. caused a 50% inhibition of the action of that enzyme.

[2] = biological target: T2, Prostacyclin (PGI2) Synthetase (Sus scrofa, UniProt A0A5G2QT35); test: Prostacyclin (PGI2) synthetase inhibition in vitro (isometric tension of rabbit aorta strip); type: biochemical; conditions: pig aorta microsomes; PGH2 substrate, 30 sec, 22° C; 5 min pre-incubation; read-out: Molar concentration causing 50% inhibition of PGI2 Synthetase
T2 construct: Pig aorta microsomes; from tissue; host or cells: pig aorta (microsomes)
T2 sequence (A0A5G2QT35 1-497): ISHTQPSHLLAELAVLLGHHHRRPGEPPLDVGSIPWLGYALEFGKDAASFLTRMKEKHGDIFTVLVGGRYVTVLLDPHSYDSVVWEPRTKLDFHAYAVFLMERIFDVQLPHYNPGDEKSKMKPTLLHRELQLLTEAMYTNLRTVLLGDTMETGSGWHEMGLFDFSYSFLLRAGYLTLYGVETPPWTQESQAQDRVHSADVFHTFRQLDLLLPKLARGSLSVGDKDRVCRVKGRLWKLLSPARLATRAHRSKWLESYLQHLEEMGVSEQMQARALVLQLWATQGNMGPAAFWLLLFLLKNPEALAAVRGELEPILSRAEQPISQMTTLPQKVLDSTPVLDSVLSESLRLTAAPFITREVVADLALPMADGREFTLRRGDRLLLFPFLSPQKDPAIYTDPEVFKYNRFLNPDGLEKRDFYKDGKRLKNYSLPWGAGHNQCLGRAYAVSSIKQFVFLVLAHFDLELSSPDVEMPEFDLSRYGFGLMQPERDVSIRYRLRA
Method: as §1
2. Prostacyclin (PGI2) Synthetase
Pig aorta microsomes (Nature, 1976, 263, 663) are incubated (30 sec.; 22° C.) with PGH2 produced as in 1) and aliquots bio-assayed as in 1. […] The test compound is then pre-incubated with the enzyme for 5 minutes, and its ability to prevent the decrease in tension is measured.
as §2

Cyclo-oxygenase = biological target: T3, Cyclo-oxygenase (Ovis aries, UniProt P05979); test: Cyclo-oxygenase inhibition in vitro (isometric tension of rabbit aorta strip); type: biochemical; conditions: ram seminal vesicle microsomes; arachidonic acid 100 μM, 1 min, 22°; 5 min pre-incubation; read-out: Molar concentration causing 50% inhibition of Cyclo-oxygenase
T3 construct: Ram seminal vesicle microsomes; from tissue; host or cells: ram seminal vesicle (microsomes)
T3 sequence (P05979 25-600): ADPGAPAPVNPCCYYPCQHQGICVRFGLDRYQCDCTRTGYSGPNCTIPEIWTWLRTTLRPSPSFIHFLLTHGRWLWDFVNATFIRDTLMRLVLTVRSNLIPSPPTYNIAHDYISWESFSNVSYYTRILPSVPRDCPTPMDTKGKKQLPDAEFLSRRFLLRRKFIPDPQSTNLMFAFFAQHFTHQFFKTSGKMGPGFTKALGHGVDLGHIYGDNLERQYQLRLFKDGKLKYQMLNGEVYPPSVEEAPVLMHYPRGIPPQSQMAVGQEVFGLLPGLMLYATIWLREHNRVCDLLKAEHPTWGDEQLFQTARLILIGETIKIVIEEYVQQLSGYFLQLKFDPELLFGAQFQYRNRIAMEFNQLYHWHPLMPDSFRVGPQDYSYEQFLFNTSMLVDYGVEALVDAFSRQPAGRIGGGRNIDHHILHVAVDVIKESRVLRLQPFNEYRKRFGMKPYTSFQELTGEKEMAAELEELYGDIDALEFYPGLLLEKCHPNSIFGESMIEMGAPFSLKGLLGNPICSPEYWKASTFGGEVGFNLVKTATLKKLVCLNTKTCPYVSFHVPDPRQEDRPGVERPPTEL
Method: as §1
Ram seminal vesicle microsomes (Biochemistry, 1971, 10, 2372) are incubated with arachidonic acid (100 μM: 1 min.: 22°) to produce PGH2 and aliquots of the reaction mixture injected into a stream of Krebs-bicarbonate at 37° C. (containing a mixture of antagonists (Nature, 1978, 218, 1135) and indomethacin (Brit. J. Pharmacol., 1972, 45, 451)) which is superfusing a spirally-cut rabbit aorta strip (Nature, 1969, 223, 29). The ability of a compound to inhibit the enzyme is measured by comparing the increases in isometric tension produced by PGH2 in the absence of the test compound, and following pre-incubation of the enzyme with the test compound for 5 minutes.
as §2

[3] = tested on: human blood platelet aggregation; conditions: human blood platelets, variety of aggregating agents; literature; cited from earlier work
[4] = tested on: lethal effect of arachidonic acid injection; conditions: intravenous arachidonic acid; literature; cited from earlier work
cyclo-oxygenase enzyme = conditions: background statement; cited from earlier work
[5] = biological target: T2, Prostacyclin (PGI2) Synthetase; conditions: pre-incubation with pig aorta microsome enzyme; literature; cited from earlier work
[6] = tested on: aggregation of platelets in the rat aorta; conditions: rats in vivo; literature; cited from earlier work

SMILES | IC50 [1] | IC50 [2] | also measured
O=C(O)c1ccc(Cn2cccc2Cn2ccnc2)cc1 | 3.4 nM | 100000 nM | IC50 (Cyclo-oxygenase): > 100000 nM
c1ccc(Cn2cccc2Cn2ccnc2)cc1 | 1700 nM | – | –
O=C(c1ccccc1)n1cccc1Cn1ccnc1 | 4.9 nM | 35000 nM | –
CC(=O)Oc1ccccc1C(=O)O [aspirin] | – | – | inhibitory activity in vitro against aggregating agents [3]: show inhibitory activity in vitro; protection from the lethal effect of arachidonic acid injection [4]: protect the rabbit from the lethal effect of the injection; inhibition of the cyclo-oxygenase enzyme (cyclo-oxygenase enzyme): inhibit the cyclo-oxygenase enzyme
O=C(O)CCn1cccc1Cn1ccnc1 [CH2 CH2 CO2 H, 1-(2-Carboxyethyl)-2-(imidazol-1-ylmethyl)pyrrole] | 180 nM | – | –
c1ccc(-n2cccc2Cn2ccnc2)cc1 | 1.9 nM | 6500 nM | –
CCCCCC(/C=C/C=C\C/C=C\C/C=C\CCCC(=O)O)OO (centres unmarked) [15-hydroperoxy-arachidonic acid] | – | – | prevention of the PGI2-induced decrease in tension (PGI2 synthetase inhibition) [5]: prevented completely
c1cc(Cn2ccnc2)n(C2CCCCC2)c1 | 620 nM | – | –
O=C1C(CC[S+]([O-])c2ccccc2)C(=O)N(c2ccccc2)N1c1ccccc1 (centres unmarked) [sulphinpyrazone] | – | – | inhibitory activity in vitro against aggregating agents [3]: show inhibitory activity in vitro; protection from the lethal effect of arachidonic acid injection [4]: protect the rabbit from the lethal effect of the injection; prevention of platelet aggregation in extra corporeal loop of the abdominal aorta [6]: prevent the aggregation of platelets
C=CCn1cccc1Cn1ccnc1 [CH2 CHCH2] | 150 nM | – | –
CCOC(=O)c1ccc(Cn2cccc2Cn2ccnc2)cc1 | 2.4 nM | 22000 nM | –
